We go through 2 compounds from patent publication US11226337B2, “Chemoproteomic profiling of protein electrophilic and oxidative post-translational modifications” (Zenagem, LLC, priority 2017, dated 2022).

Assay [1] addresses T1, LEPRE1 Prolyl 3hydroxylase 1 (Q32P28) (Homo sapiens, UniProt Q32P28).
T1 construct: In Situ Labelling of Cells with Hydrazine Probes for MS Experiments; endogenous in cells
T1 sequence (Q32P28 23-736): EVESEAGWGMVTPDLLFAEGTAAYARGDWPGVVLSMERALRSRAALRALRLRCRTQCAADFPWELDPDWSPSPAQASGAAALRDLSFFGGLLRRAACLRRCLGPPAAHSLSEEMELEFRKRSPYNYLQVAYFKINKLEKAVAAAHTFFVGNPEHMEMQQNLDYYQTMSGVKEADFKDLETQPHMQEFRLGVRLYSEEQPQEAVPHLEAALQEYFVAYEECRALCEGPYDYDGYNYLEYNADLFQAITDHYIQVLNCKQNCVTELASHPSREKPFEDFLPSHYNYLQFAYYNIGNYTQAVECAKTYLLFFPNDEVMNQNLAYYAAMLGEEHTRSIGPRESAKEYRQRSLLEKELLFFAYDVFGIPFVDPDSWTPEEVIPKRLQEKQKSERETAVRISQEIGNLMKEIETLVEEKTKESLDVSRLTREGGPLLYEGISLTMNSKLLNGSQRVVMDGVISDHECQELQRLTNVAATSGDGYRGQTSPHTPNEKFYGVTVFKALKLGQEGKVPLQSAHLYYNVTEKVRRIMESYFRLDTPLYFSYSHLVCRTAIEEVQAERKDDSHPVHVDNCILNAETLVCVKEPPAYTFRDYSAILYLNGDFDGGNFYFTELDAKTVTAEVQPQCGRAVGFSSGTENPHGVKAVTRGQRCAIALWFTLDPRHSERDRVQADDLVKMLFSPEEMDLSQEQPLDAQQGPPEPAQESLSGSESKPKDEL
Briefly: SILAC RP-ABPP. In kind it is cell-based. Conditions: SILAC H/L, MDA-MB-231.

For assay [2], the target named is T2, GLB1 Betagalactosidase (P16278) (Homo sapiens, UniProt P16278).
T2 construct: shared by both the endogenous and recombinant forms of these proteins; endogenous in cells; host or cells: HEK293T and MDA-MB-231
T2 sequence (P16278 29-677): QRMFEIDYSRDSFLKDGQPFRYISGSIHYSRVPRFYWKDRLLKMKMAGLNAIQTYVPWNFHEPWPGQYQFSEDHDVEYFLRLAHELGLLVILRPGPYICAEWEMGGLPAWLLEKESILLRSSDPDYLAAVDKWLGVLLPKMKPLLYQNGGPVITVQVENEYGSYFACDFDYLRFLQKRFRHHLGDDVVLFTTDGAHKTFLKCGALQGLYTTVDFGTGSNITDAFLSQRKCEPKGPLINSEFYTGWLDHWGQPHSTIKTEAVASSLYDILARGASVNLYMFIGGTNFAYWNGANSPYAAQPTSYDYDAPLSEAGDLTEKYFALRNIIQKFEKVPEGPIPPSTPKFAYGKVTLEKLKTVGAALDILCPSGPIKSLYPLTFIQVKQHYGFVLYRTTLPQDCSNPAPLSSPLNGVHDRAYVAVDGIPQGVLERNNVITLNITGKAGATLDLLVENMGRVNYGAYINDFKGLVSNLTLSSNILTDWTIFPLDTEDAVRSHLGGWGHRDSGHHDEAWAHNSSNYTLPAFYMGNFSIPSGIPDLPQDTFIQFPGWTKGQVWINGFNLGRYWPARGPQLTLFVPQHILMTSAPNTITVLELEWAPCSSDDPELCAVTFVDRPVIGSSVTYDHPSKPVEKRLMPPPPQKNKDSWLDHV
Briefly: SILAC RP-ABPP. The note with it: SILAC H/L. The format is cell-based.

For `C#CCCNC(=O)c1ccc(NN)cc1.Cl` [probe 2, N-(but-3-yn-1-yl)-4-hydrazinylbenzamide hydrochloride], the enrichment ratioavg turned out to be 8 in assay [1] (probe 2 1 mM 0.5 h vs probe 4) and 6 in assay [2] (probe 2 1 mM 0.5 h vs probe 4, MDA-MB-231). For the same compound, the competition ratioavg in assay [1] (probe 2 vs probe 2+10x probe 4) is on record as 2; in assay [2] (probe 2 vs probe 2+10x probe 4, MDA-MB-231) it was 2.
On to `C#CCNN.Cl` [probe 1, prop-2-yn-1-ylhydrazine hydrochloride], for which the enrichment ratioavg in assay [1] (probe 1 3 mM 0.5 h vs probe 3) is 8; in assay [2] (probe 1 3 mM 0.5 h vs probe 3, HEK293T), 12. Also, the competition ratioavg in assay [1] (probe 1 vs probe 1+10x probe 3) was determined as 3; in assay [2] (probe 1 vs probe 1+10x probe 3, HEK293T) it was 3.
